Laboratory results as given in patent US20230097253A1, “NOVEL QUINAZOLINE COMPOUND AS THERAPEUTIC AGENT FOR METABOLIC DISORDERS” (BIOWAY., INC, priority 2020, published 2023).

How the values were obtained:
[1] = system: steatosis-induced Huh-7 cells; assay: Expression of fat-oxidation promoting proteins (western blot) compared to existing developed materials; type: cell-based; conditions: 250 μM PA, BW-3290 0.5, 2.5, 10 μM vs comparators 1 and 10 μM, 24 hours, FIG. 4
Experimental: To induce steatosis in Huh-7 cells in each well except for control cells, the Huh-7 cells were treated with PA bound to 2% BSA at a concentration of 250 μM except for the control, and the control cells were pretreated with 2% BSA without FA.
The cells in each well were treated with the compounds of the present invention, BW-3290, 0.5 μM, 2.5 μM, and 10 μM, PF-06409577 1 μM and 10 μM, and elafibranor 1 μM and 10 μM, respectively and then cultured for 24 hours. The control cells and PA treated cells were treated with DMSO. All media were aspirated and the cells were gently washed 3 times with cold PBS.
A cold lysis buffer containing 150 mM sodium chloride (NaCl), 5 mM ethylenediaminetetraacetic acid (EDTA), pH 8.0, […] 4-(2-hydroxyethyl)-1-piperazineethanesulfonic acid (HEPES), 1% nonylphenoxypolyethoxylethanol (NP-40), aprotinin (2 μg/mL), 1 μM pepstatin A, 10 μM leupeptin, 1 mM sodium fluoride (NaF), 0.2 mM sodium orthovanadate ([…]), and 1 μM phenylmethylsulfonyl fluoride (PMSF) was added thereto.
A whole cell lysate was collected and gently pipetted at least 10 times to ensure complete lysis. The sample was incubated on ice for 20 minutes and centrifuged 4° C. at 13,000 rpm, for 20 minutes. […]
Images were acquired using an ImageQuant LAS 3000 (Fujifilm, Tokyo, Japan). Data were analyzed.

[2] = system: steatosis-induced Huh7 cells; assay: Fat globule reducing effect in steatosis-induced hepatocytes by Oil-Red-O staining; type: cell-based; conditions: 250 μM PA, 0.5, 2.5 and 10 μM, concentration dependent, FIG. 7
Experimental: According to an embodiment of the present invention, in order to confirm the effect of inhibiting the accumulation of triglycerides in steatosis-induced liver cells, the Huh7 cells were cultured in an incubator set at 37° C. with 95% humidity and 5% CO2.
Additionally, Huh7 cells were proliferated to a confluency of 80-90% on a plate using a growth medium (Dulbecco's modified Eagle's medium (DMEM) supplemented with 10% fetal bovine serum (FBS), 100 U/ml of penicillin, and 100 μg/ml of streptomycin), and then used for the experiment.
According to an embodiment of the present invention, in order to confirm the ability of BW-3290 to inhibit fat globule accumulation in steatosis-induced liver cells, the liver cells were treated with palmitic acid (PA) bound to 2% BSA at a concentration of 250 μM except for the control group to induce steatosis, and then fat globules were stained through Oil-Red-O staining.
First, liver cells were cultured to grow 80-90% confluency in a 12 well plate, and the test material were diluted in the culture medium that induced steatosis and the liver cells, except for the control group, were treated with 0.5 μM, 2.5 μM, and 10 μM of the test material.
Additionally, after removing the cell supernatant from the wells for Oil-Red-O staining, the washing process was performed twice with PBS. […]

DIAMOND™ mouse model = assay: Efficacy in improving liver fibrosis (Sirius Red and Trichrome staining of liver tissue); type: in vivo; conditions: DIAMOND mice liver tissue, 16 mg/kg oral once daily for 8 weeks, compared to control group (VC)
Experimental: The DIAMOND™ mouse model, an animal model prepared using a Western diet and sugar water, was used. The DIAMOND™ mice were induced with WDSW for 14 weeks, and 12 mice were used for the control group and 12 mice for the BW-3290 treatment group, and BW-3290 was orally administered at 16 mg/kg once daily for 8 weeks. An autopsy was performed at week 22, and blood collection and tissue storage were performed for the individuals in each group.
Staining was performed by Sirius Red staining and Trichrome (Masson's trichrome) staining, which are the staining methods that can confirm fibrosis, was stained using the liver tissue obtained after autopsy.

SMILES: CC(C)C(Nc1ncnc2nc[nH]c12)c1nc2cccc(Cl)c2c(=O)n1-c1ccccc1 (centres unmarked) [BW-3290, 2-(1-((7H-purin-6-yl)amino)-2-methylpropyl)-5-chloro-3-phenylquinazolin-4(3H)-one]
- expression of LCAD (fatty acid oxidation-related protein) compared to PF-064099577 and elafibranor [1]: same or higher effect of fatty acid degradation
- p-ACC expression (inhibition of fat accumulation) compared to PF-064099577 and elafibranor [1]: same or higher effect of inhibiting fat accumulation
- fat globule staining (Oil-Red-O) compared to PA [2]: lower level of fat globule staining compared to PA
- fiberized portions stained in blue by Trichrome staining (DIAMOND™ mouse model): reduced
- collagen and amyloid tissues stained in red by Sirius Red staining (DIAMOND™ mouse model; FIGS. 19 and 22): decreased
